Results: ChEMBL document CHEMBL6109129, “Discovery of Conformationally Constrained Dihydro Benzo-Indole Derivatives as Metallo-β-Lactamase Inhibitors to Tackle Multidrug-Resistant Bacterial Infections” (J Med Chem, 2025)
pIC50: −log10 of the molar value.

Columns and labels:
[1] = system: Klebsiella pneumoniae; test: Synergistic antibacterial activity against carbapenem-resistant Klebsiella pneumoniae 571278 assessed as reduction in microbial growth at 16 ug/ml measured after 16 to 18 hrs in presence of imipenem by microbial dilution method; format: functional; conditions: dose 16 µg/ml, time 16-18 hrs
[2] = Apparent permeability the compound in PBS buffer at pH 7.4 measured after 5 hrs by LC-MS/MS analysis; format: ADME; conditions: not told
[3] = Inhibition of VIM-1 (unknown origin) using FC5 as substrate preincubated for 10 mins followed by substrate addition and measured immediately by fluorescence based analysis; parameters: species or system Bacteria
[4] = system: Escherichia coli; test: Synergistic antibacterial activity against carbapenem-resistant Escherichia coli 565988 assessed as reduction in microbial growth at 16 ug/ml measured after 16 to 18 hrs in presence of meropenem by microbial dilution method; format: functional; conditions: dose 16 µg/ml, time 16-18 hrs
[5] = system: Escherichia coli; test: Synergistic antibacterial activity against carbapenem-resistant Escherichia coli BAA-2471 assessed as reduction in microbial growth at 8 ug/ml measured after 16 to 18 hrs in presence of meropenem by microbial dilution method; format: functional; conditions: dose 8 µg/ml, time 16-18 hrs
[6] = system: Escherichia coli; test: Synergistic antibacterial activity against carbapenem-resistant Escherichia coli 565988 assessed as reduction in microbial growth at 4 ug/ml measured after 16 to 18 hrs in presence of imipenem by microbial dilution method; format: functional; conditions: dose 4 µg/ml, time 16-18 hrs
[7] = system: Enterobacter cloacae; test: Synergistic antibacterial activity against carbapenem-resistant Enterobacter cloacae BAA-2468 assessed as reduction in microbial growth at 0.5 ug/ml measured after 16 to 18 hrs in presence of imipenem by microbial dilution method; format: functional; conditions: dose 0.5 µg/ml, time 16-18 hrs
[8] = biological target: Metallo-beta-lactamase type 2 (Bacteria) (UniProt C7C422); test: Induction of thermal stabilization of NDM-1 (unknown origin) assessed as melting temperature at 25 uM by differential scanning fluorimetry analysis
[9] = system: Klebsiella pneumoniae; test: Synergistic antibacterial activity against carbapenem-resistant Klebsiella pneumoniae 552439 assessed as reduction in microbial growth at 16 ug/ml measured after 16 to 18 hrs in presence of imipenem by microbial dilution method; format: functional; conditions: dose 16 µg/ml, time 16-18 hrs
[10] = system: Enterobacter cloacae; test: Synergistic antibacterial activity against carbapenem-resistant Enterobacter cloacae BAA-2468 assessed as reduction in microbial growth at 8 ug/ml measured after 16 to 18 hrs in presence of imipenem by microbial dilution method; format: functional; conditions: dose 8 µg/ml, time 16-18 hrs
[11] = system: Klebsiella pneumoniae subsp. pneumoniae; test: Synergistic antibacterial activity against carbapenem-resistant Klebsiella pneumoniae subsp. pneumoniae BAA-2470 assessed as reduction in microbial growth at 0.5 ug/ml measured after 16 to 18 hrs in presence of imipenem by microbial dilution method; format: functional; conditions: dose 0.5 µg/ml, time 16-18 hrs
[12] = Metabolic stability in human liver microsomes assessed as intrinsic clearance at 1 uM preincubated for 5 mins followed by NADPH addition and measured up to 60 mins by LC-MS/MS analysis; format: ADME, Microsome; conditions: time < 65 min, read-out: CLH
[13] = Plasma protein binding in mouse assessed as unbound fraction at 10 uM measured after 5 hrs by LC-MS/MS analysis; format: ADME, cell-free
[14] = system: Klebsiella pneumoniae subsp. pneumoniae; test: Synergistic antibacterial activity against carbapenem-resistant Klebsiella pneumoniae BAA-2470 assessed as reduction in microbial growth at 16 ug/ml measured after 16 to 18 hrs in presence of imipenem by microbial dilution method; format: functional; conditions: dose 16 µg/ml, time 16-18 hrs
[15] = Metabolic stability in mouse liver microsomes assessed as intrinsic clearance at 1 uM preincubated for 5 mins followed by NADPH addition and measured up to 60 mins by LC-MS/MS analysis; format: ADME, Microsome; conditions: time < 65 min, read-out: CLH
[16] = system: Klebsiella pneumoniae; test: Synergistic antibacterial activity against carbapenem-resistant Klebsiella pneumoniae BAA-2473 assessed as reduction in microbial growth at 16 ug/ml measured after 16 to 18 hrs in presence of meropenem by microbial dilution method; format: functional; conditions: dose 16 µg/ml, time 16-18 hrs
[17] = Cytotoxicity in HEK293 cells assessed as inhibition of cell growth measured after 24 hrs by MTT assay; format: toxicity, cell-based; conditions: human
[18] = system: Escherichia coli; test: Synergistic antibacterial activity against carbapenem-resistant Escherichia coli 541588 assessed as reduction in microbial growth at 4 ug/ml measured after 16 to 18 hrs in presence of meropenem by microbial dilution method; format: functional; conditions: dose 4 µg/ml, time 16-18 hrs
[19] = Octanol/aqueous buffer distribution coefficient, log D of the compound at pH 7.4 incubated for 4 hrs under shaking condition by HPLC analysis; format: physicochemical
[20] = system: Klebsiella pneumoniae subsp. pneumoniae; test: Synergistic antibacterial activity against carbapenem-resistant Klebsiella pneumoniae subsp. pneumoniae BAA-2472 assessed as reduction in microbial growth at 0.5 ug/ml measured after 16 to 18 hrs in presence of imipenem by microbial dilution method; format: functional; conditions: dose 0.5 µg/ml, time 16-18 hrs
[21] = system: Klebsiella pneumoniae; test: Synergistic antibacterial activity against carbapenem-resistant Klebsiella pneumoniae 565345 assessed as reduction in microbial growth at 16 ug/ml measured after 16 to 18 hrs in presence of meropenem by microbial dilution method; format: functional; conditions: dose 16 µg/ml, time 16-18 hrs
[22] = biological target: Metallo-beta-lactamase type 2 (Bacteria) (UniProt C7C422); test: Induction of thermal stabilization of NDM-1 (unknown origin) assessed as melting temperature at 12.5 uM by differential scanning fluorimetry analysis
[23] = biological target: Metallo-beta-lactamase type 2 (Bacteria) (UniProt C7C422); test: Induction of thermal stabilization of NDM-1 (unknown origin) assessed as melting temperature at 6.25 uM by differential scanning fluorimetry analysis
[24] = Inhibition of IMP-1 (unknown origin) using FC5 as substrate preincubated for 10 mins followed by substrate addition and measured immediately by fluorescence based analysis; parameters: species or system Bacteria
[25] = biological target: Metallo-beta-lactamase type 2 (Bacteria) (UniProt C7C422); test: Induction of thermal stabilization of NDM-1 (unknown origin) assessed as melting temperature at 3.12 uM by differential scanning fluorimetry analysis
[26] = system: Klebsiella pneumoniae; test: Synergistic antibacterial activity against carbapenem-resistant Klebsiella pneumoniae BAA-2473 assessed as reduction in microbial growth at 0.5 ug/ml measured after 16 to 18 hrs in presence of imipenem by microbial dilution method; format: functional; conditions: dose 0.5 µg/ml, time 16-18 hrs
[27] = system: Escherichia coli; test: Synergistic antibacterial activity against carbapenem-resistant Escherichia coli BAA-2469 assessed as reduction in microbial growth at 0.5 ug/ml measured after 16 to 18 hrs in presence of imipenem by microbial dilution method; format: functional; conditions: dose 0.5 µg/ml, time 16-18 hrs
[28] = system: Escherichia coli; test: Synergistic antibacterial activity against carbapenem-resistant Escherichia coli BAA-2471 assessed as reduction in microbial growth at 16 ug/ml measured after 16 to 18 hrs in presence of imipenem by microbial dilution method; format: functional; conditions: dose 16 µg/ml, time 16-18 hrs
[29] = system: Escherichia coli; test: Synergistic antibacterial activity against carbapenem-resistant Escherichia coli BAA-2469 assessed as reduction in microbial growth at 16 ug/ml measured after 16 to 18 hrs in presence of imipenem by microbial dilution method; format: functional; conditions: dose 16 µg/ml, time 16-18 hrs
[30] = system: Klebsiella pneumoniae; test: Synergistic antibacterial activity against carbapenem-resistant Klebsiella pneumoniae 571278 assessed as reduction in microbial growth at 4 ug/ml measured after 16 to 18 hrs in presence of meropenem by microbial dilution method; format: functional; conditions: dose 4 µg/ml, time 16-18 hrs
[31] = system: Escherichia coli; test: Synergistic antibacterial activity against carbapenem-resistant Escherichia coli BAA-2471 assessed as reduction in microbial growth at 16 ug/ml measured after 16 to 18 hrs in presence of meropenem by microbial dilution method; format: functional; conditions: dose 16 µg/ml, time 16-18 hrs
[32] = system: Klebsiella pneumoniae; test: Synergistic antibacterial activity against carbapenem-resistant Klebsiella pneumoniae 538961 assessed as reduction in microbial growth at 4 ug/ml measured after 16 to 18 hrs in presence of imipenem by microbial dilution method; format: functional; conditions: dose 4 µg/ml, time 16-18 hrs
[33] = system: Escherichia coli; test: Synergistic antibacterial activity against carbapenem-resistant Escherichia coli 565988 assessed as reduction in microbial growth at 4 ug/ml measured after 16 to 18 hrs in presence of meropenem by microbial dilution method; format: functional; conditions: dose 4 µg/ml, time 16-18 hrs

Sequence of Metallo-beta-lactamase type 2 (Bacteria) (C7C422 whole entry): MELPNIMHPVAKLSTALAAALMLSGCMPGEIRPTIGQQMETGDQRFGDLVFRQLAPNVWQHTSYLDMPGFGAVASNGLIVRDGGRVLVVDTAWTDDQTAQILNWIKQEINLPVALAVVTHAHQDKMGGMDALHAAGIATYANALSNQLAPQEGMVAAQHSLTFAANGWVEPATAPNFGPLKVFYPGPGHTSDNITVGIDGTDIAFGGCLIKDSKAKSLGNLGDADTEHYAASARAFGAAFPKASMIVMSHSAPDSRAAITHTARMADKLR

COc1ccc(Cl)cc1-c1c(C(=O)O)[nH]c2c1CCc1ccccc1-2
MIC [1]: 4 µg/mL | Papp at 5 h [2]: 14 ×10⁻⁶ cm/s | pIC50 [3]: 7.68 | MIC [4]: < 0.5 µg/mL | MIC [5]: 16 µg/mL | MIC [6]: 1 µg/mL | MIC [7]: > 64 µg/mL | Tm [8]: 19 °C | MIC [9]: 1 µg/mL | MIC [10]: 64 µg/mL | MIC [11]: 16 µg/mL | microsomal CLint at 1 µM [12]: 9.8 µL/min/mg | fraction unbound at 5 h, 10 µM [13]: 0.952 | MIC [14]: 2 µg/mL | microsomal CLint at 1 µM [15]: 12.9 µL/min/mg | MIC [16]: 8 µg/mL | IC50 at 24 h [17]: > 200000 nM | MIC [18]: 8 µg/mL | logD at 4 h [19]: 2.58 | MIC [20]: 64 µg/mL | MIC [21]: 1 µg/mL | Tm [22]: 18 °C | ΔTm [23]: 17 °C | pIC50 [24]: 7.85 | Tm [25]: 14 °C | MIC [26]: 64 µg/mL | MIC [27]: 32 µg/mL | MIC [28]: 8 µg/mL | MIC [29]: 4 µg/mL | MIC [30]: 32 µg/mL | MIC [31]: 16 µg/mL | MIC [32]: 32 µg/mL | MIC [33]: 1 µg/mL
